Reference: ChEMBL document CHEMBL4265900, “Discovery of the bifunctional modulator of angiotensin II type 1 receptor (AT1R) and PPARγ derived from the AT1R antagonist, Fimasartan” (Bioorg Med Chem Lett, 2018)
Calls of active or inactive are those of the source. No cut-off for these calls is given here.

Experiments:
[1] = target: T1, Peroxisome proliferator-activated receptor gamma (Homo sapiens) (UniProt P37231); test: Agonist activity at PPARgamma (unknown origin) at 1 uM relative to telmisartan
T1 sequence (whole entry): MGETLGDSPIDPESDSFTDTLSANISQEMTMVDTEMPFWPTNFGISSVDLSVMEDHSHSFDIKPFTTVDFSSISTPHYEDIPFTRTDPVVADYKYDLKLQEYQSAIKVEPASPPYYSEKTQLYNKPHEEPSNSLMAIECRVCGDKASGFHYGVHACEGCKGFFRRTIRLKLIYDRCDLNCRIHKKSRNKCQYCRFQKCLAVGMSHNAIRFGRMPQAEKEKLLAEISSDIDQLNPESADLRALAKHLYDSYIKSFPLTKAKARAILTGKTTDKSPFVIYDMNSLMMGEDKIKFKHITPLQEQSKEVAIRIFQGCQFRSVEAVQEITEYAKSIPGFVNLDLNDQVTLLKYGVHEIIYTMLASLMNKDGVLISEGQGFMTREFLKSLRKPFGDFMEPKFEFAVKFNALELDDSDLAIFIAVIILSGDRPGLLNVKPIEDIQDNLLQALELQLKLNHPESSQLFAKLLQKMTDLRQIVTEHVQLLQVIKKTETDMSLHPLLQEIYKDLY

[2] = target: T2, Type-1 angiotensin II receptor (Homo sapiens, UniProt P30556); test: Antagonist activity at type-1 angiotensin 2 receptor (unknown origin) by calcium mobilizing assay; type: functional
T2 sequence (P30556 whole entry): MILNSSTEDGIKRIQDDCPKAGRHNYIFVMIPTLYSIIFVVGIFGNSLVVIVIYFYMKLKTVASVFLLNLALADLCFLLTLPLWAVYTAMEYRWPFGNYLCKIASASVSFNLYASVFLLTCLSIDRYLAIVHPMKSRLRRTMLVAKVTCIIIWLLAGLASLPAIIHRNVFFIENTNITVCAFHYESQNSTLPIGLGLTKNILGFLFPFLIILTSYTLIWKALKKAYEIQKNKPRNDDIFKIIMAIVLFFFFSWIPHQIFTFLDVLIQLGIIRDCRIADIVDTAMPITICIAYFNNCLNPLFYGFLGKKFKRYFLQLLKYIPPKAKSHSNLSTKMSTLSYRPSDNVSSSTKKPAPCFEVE

[3] = target: T3, Type-1 angiotensin II receptor (Homo sapiens) (UniProt P30556); test: Antagonist activity at type-1 angiotensin 2 receptor (unknown origin) at 20 nM by calcium mobilizing assay relative to fimasartan; type: functional
T3 sequence (whole entry): T2 sequence (P30556 whole entry)

[4] = Cmax in mouse at 60 mg/kg, po; type: ADME, organism-based; design: dose 60 mg/kg, route oral; settings: in vivo
[5] = Tmax in rat at 60 mg/kg, po; type: ADME, organism-based; settings: in vivo
CYP2C19 = CYP2C19 (Homo sapiens, UniProt P33261); test: Inhibition of CYP2C19 (unknown origin) assessed as remaining activity at 10 uM; type: ADME; settings: read-out: Activity
Sequence of CYP2C19 (P33261 whole entry): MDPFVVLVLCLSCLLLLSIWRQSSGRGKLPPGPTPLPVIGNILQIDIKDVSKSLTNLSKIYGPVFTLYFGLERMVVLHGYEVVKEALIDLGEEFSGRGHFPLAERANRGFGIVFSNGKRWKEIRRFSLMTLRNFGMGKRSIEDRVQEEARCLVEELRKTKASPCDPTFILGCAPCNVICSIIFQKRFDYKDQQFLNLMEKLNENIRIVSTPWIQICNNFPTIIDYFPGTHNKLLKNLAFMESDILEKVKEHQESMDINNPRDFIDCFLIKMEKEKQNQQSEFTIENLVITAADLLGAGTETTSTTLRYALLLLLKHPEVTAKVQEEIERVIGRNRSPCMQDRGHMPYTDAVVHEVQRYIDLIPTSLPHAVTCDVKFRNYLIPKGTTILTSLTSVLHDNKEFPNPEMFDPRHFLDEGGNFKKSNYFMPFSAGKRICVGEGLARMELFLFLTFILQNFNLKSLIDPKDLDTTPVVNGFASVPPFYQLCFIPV

[6] = Tmax in mouse at 60 mg/kg, po; type: ADME, organism-based; settings: in vivo
[7] = Stability in rat liver microsomes assessed as compound remaining after 30 mins; type: ADME, microsome; settings: read-out: Stability
[8] = target: T2, Type-1 angiotensin II receptor; test: Antagonist activity at type-1 angiotensin 2 receptor (unknown origin) by beta-arrestin recruitment assay; type: functional
[9] = target: T1, Peroxisome proliferator-activated receptor gamma (Homo sapiens); test: Agonist activity at PPARgamma (unknown origin) at 1 uM relative to pioglitazone
[10] = Stability in human liver microsomes assessed as compound remaining after 30 mins; type: ADME, microsome; settings: read-out: Stability
CYP3A4 = CYP3A4 (Homo sapiens, UniProt P08684); test: Inhibition of CYP3A4 (unknown origin) assessed as remaining activity at 10 uM; type: ADME; settings: read-out: Activity
Sequence of CYP3A4 (P08684 whole entry): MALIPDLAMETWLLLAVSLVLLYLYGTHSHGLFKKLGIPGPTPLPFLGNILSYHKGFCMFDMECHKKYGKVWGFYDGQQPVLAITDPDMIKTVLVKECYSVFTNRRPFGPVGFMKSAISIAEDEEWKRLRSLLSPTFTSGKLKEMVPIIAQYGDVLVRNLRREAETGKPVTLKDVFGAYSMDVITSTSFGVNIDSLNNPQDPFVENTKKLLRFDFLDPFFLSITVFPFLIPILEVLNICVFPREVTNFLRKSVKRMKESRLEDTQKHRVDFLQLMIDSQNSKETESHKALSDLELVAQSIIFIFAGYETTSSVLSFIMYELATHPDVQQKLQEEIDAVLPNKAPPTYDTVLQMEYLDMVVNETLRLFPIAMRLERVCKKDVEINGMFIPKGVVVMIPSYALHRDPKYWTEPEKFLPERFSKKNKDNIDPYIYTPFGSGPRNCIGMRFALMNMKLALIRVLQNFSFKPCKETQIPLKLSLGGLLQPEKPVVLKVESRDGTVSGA

[11] = AUClast in rat at 60 mg/kg, po; type: ADME, organism-based; design: dose 60 mg/kg, time 0 - last, route oral; settings: in vivo
CYP2C9 = CYP2C9 (Homo sapiens, UniProt P11712); test: Inhibition of CYP2C9 (unknown origin) assessed as remaining activity at 10 uM; type: ADME; settings: read-out: Activity
Sequence of CYP2C9 (P11712 whole entry): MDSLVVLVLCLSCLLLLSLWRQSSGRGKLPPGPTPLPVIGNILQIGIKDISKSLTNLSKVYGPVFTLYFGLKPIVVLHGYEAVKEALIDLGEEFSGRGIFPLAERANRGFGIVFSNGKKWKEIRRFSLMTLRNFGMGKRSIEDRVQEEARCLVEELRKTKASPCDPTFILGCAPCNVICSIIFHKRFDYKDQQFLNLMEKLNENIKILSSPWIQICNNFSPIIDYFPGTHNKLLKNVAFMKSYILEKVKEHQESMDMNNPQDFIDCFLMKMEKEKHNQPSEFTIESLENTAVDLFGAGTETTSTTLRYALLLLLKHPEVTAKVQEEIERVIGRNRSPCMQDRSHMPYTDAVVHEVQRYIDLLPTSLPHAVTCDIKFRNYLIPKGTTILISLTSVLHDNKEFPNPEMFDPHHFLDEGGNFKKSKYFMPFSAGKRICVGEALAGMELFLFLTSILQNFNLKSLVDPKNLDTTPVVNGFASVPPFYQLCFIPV

Rattus norvegicus [12] = test: Antihypertensive activity in angiotensin 2 induced hypertension rat model at 30 mg/kg, po measured after 24 hrs relative to fimasartan; type: functional
[13] = Cmax in rat at 60 mg/kg, po; type: ADME, organism-based; design: dose 60 mg/kg, route oral; settings: in vivo
[14] = Stability in dog liver microsomes assessed as compound remaining after 30 mins; type: ADME, Canis lupus familiaris, microsome; settings: read-out: Stability
Rattus norvegicus [15] = test: Antihypertensive activity in angiotensin 2 induced hypertension rat model assessed as time required for 50% reduction in blood pressure at 30 mg/kg, po; type: functional
[16] = Stability in mouse liver microsomes assessed as compound remaining after 30 mins; type: ADME, microsome; settings: read-out: Stability
[17] = target: Voltage-gated inwardly rectifying potassium channel KCNH2 (Homo sapiens, UniProt Q12809); test: Inhibition of human ERG
Sequence of Voltage-gated inwardly rectifying potassium channel KCNH2 (Q12809 whole entry): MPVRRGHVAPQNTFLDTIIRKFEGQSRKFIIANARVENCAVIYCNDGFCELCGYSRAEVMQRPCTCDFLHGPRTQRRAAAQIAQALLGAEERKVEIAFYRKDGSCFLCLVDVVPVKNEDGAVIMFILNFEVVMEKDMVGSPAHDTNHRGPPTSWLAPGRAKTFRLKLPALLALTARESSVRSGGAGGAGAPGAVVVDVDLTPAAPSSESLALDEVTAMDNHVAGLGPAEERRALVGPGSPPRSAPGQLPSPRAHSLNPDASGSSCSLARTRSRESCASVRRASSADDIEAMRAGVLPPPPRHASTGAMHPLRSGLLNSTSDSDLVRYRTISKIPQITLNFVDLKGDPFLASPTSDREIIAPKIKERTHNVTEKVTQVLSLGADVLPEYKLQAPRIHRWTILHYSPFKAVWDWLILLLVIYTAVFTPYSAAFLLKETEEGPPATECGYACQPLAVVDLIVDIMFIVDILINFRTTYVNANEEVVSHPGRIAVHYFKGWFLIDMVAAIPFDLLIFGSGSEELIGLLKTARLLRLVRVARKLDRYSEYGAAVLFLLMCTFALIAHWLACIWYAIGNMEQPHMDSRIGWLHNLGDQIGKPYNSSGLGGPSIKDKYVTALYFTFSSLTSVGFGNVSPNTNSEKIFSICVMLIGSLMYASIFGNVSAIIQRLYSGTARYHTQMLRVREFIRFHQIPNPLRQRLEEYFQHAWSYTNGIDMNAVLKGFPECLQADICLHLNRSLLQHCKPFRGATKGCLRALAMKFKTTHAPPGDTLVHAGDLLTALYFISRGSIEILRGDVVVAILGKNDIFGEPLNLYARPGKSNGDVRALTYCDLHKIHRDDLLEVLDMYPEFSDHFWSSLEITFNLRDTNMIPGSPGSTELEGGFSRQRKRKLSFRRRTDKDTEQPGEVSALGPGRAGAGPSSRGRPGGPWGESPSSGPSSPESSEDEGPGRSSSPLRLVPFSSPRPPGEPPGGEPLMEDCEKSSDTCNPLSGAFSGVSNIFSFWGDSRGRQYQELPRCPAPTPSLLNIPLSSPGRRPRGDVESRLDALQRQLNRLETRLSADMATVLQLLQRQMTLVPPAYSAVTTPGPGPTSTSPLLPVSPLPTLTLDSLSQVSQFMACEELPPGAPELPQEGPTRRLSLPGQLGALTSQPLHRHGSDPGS

Mus musculus [18] = test: Toxicity in db/db mouse model assessed as suppression of weight gain at 60 mg/kg, po qd measured after 11 days; type: organism-based; settings: in vivo, 264 h
[19] = AUClast in mouse at 60 mg/kg, po; type: ADME, organism-based; design: dose 60 mg/kg, time 0 - last, route oral; settings: in vivo
Mus musculus [20] = test: Antidiabetic activity in db/db mouse model assessed as suppression of blood glucose increase at 60 mg/kg qd, po administered for 13 days; type: functional, organism-based
[21] = target: T4, Peroxisome proliferator-activated receptor gamma (Homo sapiens, UniProt P37231); test: Agonist activity at PPARgamma (unknown origin)
T4 sequence (P37231 whole entry): T1 sequence (whole entry)

Rattus norvegicus [22] = test: Antihypertensive activity in angiotensin 2 induced hypertension rat model at 30 mg/kg, po measured until 8 hrs post dose; type: functional, organism-based
CYP1A2 = target: T5, CYP1A2 (Homo sapiens, UniProt P05177); test: Inhibition of CYP1A2 (unknown origin) assessed as remaining activity at 10 uM; type: ADME; settings: read-out: Activity
T5 sequence (P05177 whole entry): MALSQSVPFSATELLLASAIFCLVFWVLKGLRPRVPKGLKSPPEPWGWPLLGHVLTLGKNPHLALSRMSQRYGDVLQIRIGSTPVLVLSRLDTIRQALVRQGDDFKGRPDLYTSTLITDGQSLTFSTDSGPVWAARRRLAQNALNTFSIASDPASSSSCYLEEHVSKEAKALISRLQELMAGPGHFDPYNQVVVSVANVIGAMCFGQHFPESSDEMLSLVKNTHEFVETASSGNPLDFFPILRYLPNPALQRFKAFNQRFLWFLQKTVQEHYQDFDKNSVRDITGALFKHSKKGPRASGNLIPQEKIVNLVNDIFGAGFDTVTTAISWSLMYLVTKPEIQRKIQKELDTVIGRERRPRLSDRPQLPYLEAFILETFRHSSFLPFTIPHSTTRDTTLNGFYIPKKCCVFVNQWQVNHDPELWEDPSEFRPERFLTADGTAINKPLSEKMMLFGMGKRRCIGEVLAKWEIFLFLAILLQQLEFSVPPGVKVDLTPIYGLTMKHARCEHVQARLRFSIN

[23] = Half life in mouse at 60 mg/kg, po; type: ADME, organism-based; settings: in vivo
[24] = Half life in rat at 60 mg/kg, po; type: ADME, organism-based; settings: in vivo
CYP2D6 = CYP2D6 (Homo sapiens, UniProt P10635); test: Inhibition of CYP2D6 (unknown origin) assessed as remaining activity at 10 uM; type: ADME; settings: read-out: Activity
Sequence of CYP2D6 (P10635 whole entry): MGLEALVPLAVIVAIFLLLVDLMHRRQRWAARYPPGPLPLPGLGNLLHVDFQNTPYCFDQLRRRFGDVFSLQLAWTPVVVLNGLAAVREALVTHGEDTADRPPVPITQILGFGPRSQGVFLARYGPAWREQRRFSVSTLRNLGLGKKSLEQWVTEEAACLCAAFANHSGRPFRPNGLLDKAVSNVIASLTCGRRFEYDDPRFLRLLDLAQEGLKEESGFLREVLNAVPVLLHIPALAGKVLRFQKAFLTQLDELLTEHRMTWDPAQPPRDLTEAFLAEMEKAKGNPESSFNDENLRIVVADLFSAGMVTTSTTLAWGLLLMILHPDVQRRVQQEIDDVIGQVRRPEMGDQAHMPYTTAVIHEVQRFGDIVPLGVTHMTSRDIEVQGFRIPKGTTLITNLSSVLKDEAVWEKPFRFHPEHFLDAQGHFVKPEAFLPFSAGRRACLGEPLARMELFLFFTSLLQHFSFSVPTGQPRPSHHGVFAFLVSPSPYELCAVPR

[25] = Ratio of AUClast in rat at 60 mg/kg, po to AUClast in mouse at 60 mg/kg, po; type: ADME, organism-based; settings: in vivo
Mus musculus [26] = test: Toxicity in db/db mouse model assessed as suppression of weight gain at 20 mg/kg, po qd measured after 11 days; type: organism-based; settings: in vivo, 264 h
Mus musculus [27] = test: Antidiabetic activity in db/db mouse model assessed as suppression of blood glucose increase at 20 mg/kg qd, po administered for 13 days; type: functional, organism-based

Q: What does the source list for `CCCCc1nc(C)c(CC(=S)N2Cc3ccccc3C2)c(=O)n1Cc1ccc(-c2ccccc2-c2noc(=O)[nH]2)cc1`?
A: Activity [1]: 100%; IC50 [2]: 32 nM

Q: Which results are given for `CCCCc1nc(C)c(CC(=S)N2CCCC2C)c(=O)n1Cc1ccc(-c2ccccc2-c2noc(=O)[nH]2)cc1` (stereo unspecified)?
A: Activity [1]: 107%; IC50 [2]: 1.2 nM

Q: Which Activity [1] does the source give for `CCCc1nc(C)c(CC(=S)N(C)C)c(=O)n1Cc1ccc(-c2ccccc2-c2noc(=O)[nH]2)cc1` here?
A: 100%

Q: What about the IC50 [2] of the same compound?
A: 4.7 nM

Q: Which Activity [1] does the source give for `CCCCc1nc(C)c(CC(=S)N(C)C)c(=O)n1Cc1ccc(-c2ccccc2C(=O)O)cc1` here?
A: 140%

Q: And the inhibition [3]?
A: 80%

Q: For `CCCCc1nc(C)c(CC(=S)N2CCCCC2)c(=O)n1Cc1ccc(-c2ccccc2-c2noc(=O)[nH]2)cc1`, which Activity [1] is on record?
A: 116%

Q: What about the IC50 [2] of the same compound?
A: 38 nM

Q: Which Activity [1] does the source give for `CCCCc1nc(C)c(CC(=S)N2CCCC2)c(=O)n1Cc1ccc(-c2ccccc2-c2noc(=O)[nH]2)cc1` here?
A: 105%

Q: What about the IC50 [2] of the same compound?
A: 0.7 nM

Q: For `CCCCc1nc(C(C)C)c(CC(=S)N2CCCC2)c(=O)n1Cc1ccc(-c2ccccc2-c2noc(=O)[nH]2)cc1`, which Cmax [4] is on record?
A: 1860 ng/mL

Q: What about the Tmax [5] of the same compound?
A: 1.17 h

Q: And the activity at 10 µM (CYP2C19)?
A: 84%

Q: What about the Tmax [6] of the same compound?
A: 0.5 h

Q: What about the remaining at 0.5 h [7] of the same compound?
A: 24%

Q: What about the Activity [1] of the same compound?
A: 156%

Q: And the IC50 [8]?
A: 10.5 nM

Q: What about the Activity [9] of the same compound?
A: 66%

Q: And the remaining at 0.5 h [10]?
A: 13%

Q: What about the activity at 10 µM (CYP3A4) of the same compound?
A: 62%

Q: And the AUC(0-t) [11]?
A: 13400 ng·h/mL

Q: What about the activity at 10 µM (CYP2C9) of the same compound?
A: 36%

Q: And the Activity (Rattus norvegicus [12])?
A: 50%

Q: What about the Cmax [13] of the same compound?
A: 2570 ng/mL

Q: And the remaining at 0.5 h [14]?
A: 62%

Q: And the IC50 [2]?
A: 2.2 nM

Q: And the Time (Rattus norvegicus [15])?
A: 16 h

Q: What about the remaining at 0.5 h [16] of the same compound?
A: 11%

Q: What about the IC50 [17] of the same compound?
A: 7000 nM

Q: And the Activity (Mus musculus [18])?
A: Non-Toxic

Q: What about the AUC(0-t) [19] of the same compound?
A: 2570 ng·h/mL

Q: And the Activity (Mus musculus [20])?
A: Active

Q: What about the EC50 [21] of the same compound?
A: 3100 nM

Q: And the Activity (Rattus norvegicus [22])?
A: Active

Q: What about the activity at 10 µM (CYP1A2) of the same compound?
A: 97%

Q: And the half-life [23]?
A: 3.67 h

Q: And the half-life [24]?
A: 4.73 h

Q: What about the activity at 10 µM (CYP2D6) of the same compound?
A: 99%

Q: And the “Ratio AUC” value [25]?
A: 4

Q: With `CCCCc1nc(C)c(CC(=S)N(C)C)c(=O)n1Cc1ccc(-c2ccccc2S(N)(=O)=O)cc1` as the compound, how does the inhibition [3] read?
A: 11%

Q: Which Activity [1] does the source give for `CCCCc1nc(C)c(CC(=S)N2CCOCC2)c(=O)n1Cc1ccc(-c2ccccc2-c2noc(=O)[nH]2)cc1` here?
A: 83%

Q: What about the IC50 [2] of the same compound?
A: 5.6 nM

Q: What does the source list for `CCc1ccc(CCOc2ccc(CC3SC(=O)NC3=O)cc2)nc1` (stereo unspecified) [PIOGLITAZONE]?
A: Activity (Mus musculus [26]): Non-Toxic; Activity (Mus musculus [27]): Active
